Reference: patent US20040002441A1, “Recombination modulators and methods for producing and using the same” (priority 2000, published 2004)
Values joined by “and” are separate entries in the source; they are usually repeats but may differ in a detail not shown here. Equal entries are not always repeated. “Also recorded” adds a separate entry of the source. Where no end group is shown, it is not given here.

Experiments:
[1] = system: double-stranded DNA; test: Peptide binding to DNA (electrophoretic mobility shift)
From the text: Do peptides KWWCRW and KWWWRW inhibit recombination by interfering with the formation of higher order complexes? The formation of intermediates in the bent-L pathway depends on Int contacting two different types of sites, the higher affinity arm sites and the lower affinity core sites flanking the loci of DNA cleavage and strand exchange (FIG. 9). […] To determine the effect of KWWCRW on interactions of Int with its core binding sites, we assembled the recombination complexes, known as intasomes or unimolecular complexes (UMC), on an attL variant substrate with 4 mutations in the IHF binding site, collectively known as QH′. These mutations prevent the specific binding of IHF to the QH′ sequence (Gardner and Nash, 1986), but still allow IHF to bind and bend DNA nonspecifically (Segall et al., 1994). […] We next tested the assembly of bent-L pathway intermediates. At 10 μM peptide, all of the labeled DNA was shifted into the well. However, at lower peptide concentrations that still inhibited recombination (0.1-1 μM), intermediates were assembled normally. In fact, one of the intermediates, the bimolecular complex (BMC), accumulates substantially in the presence of the peptide (see also FIG. 12). […] This agrees perfectly with our observations that suboptimal concentrations of peptide lead to accumulation of Holliday junctions (FIG. 10). […] The peptide shifts att site DNA even in the complete absence of Int (data not shown), confirming that KWWCRW interacts with DNA in a concentration-dependent fashion and in a manner that affects the mobility of the DNA much more drastically than expected for the size of the peptides.
Int Assays. Site-specific recombination and gel mobility shift assays were performed as described (Segall, 1998). Briefly, reactions were performed in a total volume of 10 or 20 μl and typically contained 1-2 nM radiolabeled att site as specified, 4 nM unlabeled att site, 100-300 ng salmon sperm DNA as nonspecific competitor, 44 mM Tris-Ci (pH 8.0), 60 mM KCl, 0.05 mg/ml bovine serum albumin, 7 mM Tris borate (pH 8.9), 5 mM spermidine, 1.3 mM EDTA, and 14.6% v/v glycerol. Any deviation from this formulation is noted in the figure legends. Gel shift reactions were incubated for 90 minutes at 37° C., layered without loading dyes onto 5% native polyacrylamide gel (29 acrylamide: 1 bis-acrylamide) and electrophoresed in 0.5× Tris borate EDTA buffer. Recombination reactions were stopped with 0.2× volume of 2% SDS, layered onto 5% polyacrylamide Tris/SDS gels, and electrophoresed in 1× Tris Tricine SDS buffer at 100 mA (Segall, 1998). Dried gels were visualized and quantitated using a Molecular Dynamics PhosphorImager.

[2] = molecular target: T1, Vaccinia topoisomerase (type Ib) (Vaccinia virus, UniProt P68698); test: biochemical; format: biochemical; conditions: for IC50: IC50 for DNA cleavage (covalent adduct formation)
T1 construct: made in house; host or cells: Escherichia coli BL21 infected with bacteriophage λCE6

[3] = molecular target: T2, bacteriophage P1 Cre protein (Escherichia phage P1, UniProt P06956); test: Cre-mediated recombination between two lox site substrates; format: biochemical
T2 sequence (P06956 1-343): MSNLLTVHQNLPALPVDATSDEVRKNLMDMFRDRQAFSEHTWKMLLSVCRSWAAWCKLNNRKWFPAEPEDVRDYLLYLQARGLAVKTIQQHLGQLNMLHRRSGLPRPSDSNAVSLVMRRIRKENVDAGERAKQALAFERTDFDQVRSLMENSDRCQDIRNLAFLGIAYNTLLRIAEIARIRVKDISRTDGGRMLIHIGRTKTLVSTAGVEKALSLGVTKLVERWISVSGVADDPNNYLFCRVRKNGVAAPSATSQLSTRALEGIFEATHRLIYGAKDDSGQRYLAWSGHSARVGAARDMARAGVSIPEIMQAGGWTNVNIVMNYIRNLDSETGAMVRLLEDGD
From the text: In order to test the specificity of peptide inhibition, we determined whether peptide KWWCRW affects the activity of a relative of the Int recombinase, namely the bacteriophage P1 Cre protein. Indeed, the peptide inhibits Cre-mediated recombination between two lox site substrates (Cassell and Segall, unpublished results).

[4] = molecular target: bacteriophage λ Integrase (Int) (Escherichia phage lambda, UniProt P03700); test: Int-mediated excisive recombination; format: biochemical; conditions: for IC50: IC50, inhibition of excisive recombination, excision pathway
Procedure: FIG. 11 depicts effect of peptide KWWCRW (diamonds) and peptide KWWWRW (squares) on the remaining 3 pathways of Int-mediated recombination. Recombination extents were normalized to the amount of recombination in untreated reactions and expressed as relative % recombination. A. Effect of peptides on integrative recombination (IC50 values for both peptides are roughly 0.2 μM). Reactions were assembled as for bent-L recombination except that they were incubated at room temperature, the substrates were a supercoiled plasmid (4.8 kb) carrying attP and ^32P labeled 91 bp PCR fragment encoding attB. […] The recombination substrates were PCR fragments encoding the attL (^32P-labeled) and attR sites. Reactions contained 50 NM Xis in addition to Int and IHF (37 nM), as well as 100 ng salmon sperm DNA, and were incubated at room temperature. C. Effect of peptides on straight-L recombination (IC50 values for peptide KWWCRW is 0.06 μM, while for peptide KWWWRW is slightly over 0.1 μM). Reactions were assembled as for bent-L recombination except that they were incubated at room temperature; the substrates were two PCR fragments, one of which was ^32P-labeled and 187 bp, the other of which was unlabeled and 496 bp.
Int Assays. Site-specific recombination and gel mobility shift assays were performed as described (Segall, 1998). Briefly, reactions were performed in a total volume of 10 or 20 μl and typically contained 1-2 nM radiolabeled att site as specified, 4 nM unlabeled att site, 100-300 ng salmon sperm DNA as nonspecific competitor, 44 mM Tris-Ci (pH 8.0), 60 mM KCl, 0.05 mg/ml bovine serum albumin, 7 mM Tris borate (pH 8.9), 5 mM spermidine, 1.3 mM EDTA, and 14.6% v/v glycerol. […] Dried gels were visualized and quantitated using a Molecular Dynamics PhosphorImager.
Excision reactions: Reactions were performed in 10 μL volume containing 20 mM Tris-HCl pH 8, 5 mM spermidine, 0.2 μg BSA, 75 ng to 0.15 μg salmon sperm DNA, 30 mM KCl, and TE (recombination mix). […] All gel images were visualized with a PhosphorImager (Molecular Dynamics) and quantitated with ImageQuant software (Molecular Dynamics).

Substance | binding to DNA [1] | effect on rate of transesterification [2] | inhibition of covalent adduct formation [2] | IC50 [2] | effect on Cre-mediated recombination [3] | IC50 [4] | peptide concentration that shifts the mobility of double-stranded DNA ([1]; reactions with at least 50 ng salmon sperm DNA) | reduction of covalent adduct formation [2] | inhibition at 0.7 µM ([2]; read-out: inhibition of cleavage) | effect on transesterification (DNA cleavage) [2] | accumulation of Holliday junctions in Cre-mediated recombination [3] | EC50 [4]
KWWWRW-NH2 [Peptide 56, KWWWRW] | appear to bind to DNA | slowed the rate of transesterification | 99% | ~500 nM | inhibit | ~1100 nM |  |  |  |  |  | 
KWWCRW-NH2 [Peptide 59, KWWCRW] | appear to bind to DNA; also recorded: binds double stranded DNA by itself | slowed the rate of transesterification | 99% | ~500 nM and 500 nM | inhibit | 1100 nM and ~1100 nM | ≥ 5 µM | 90% | 40% |  |  | 
WKHYNY-NH2 [Peptide 52, WKHYNY] | do not bind double-stranded DNA |  |  |  |  |  |  |  |  | did not inhibit transesterification; also recorded: do not inhibit cleavage | does cause accumulation of Holliday junctions | 10000 to 20000 nM
